The record followed here is patent publication US20230314443A1, “METHODS OF IDENTIFYING INTERACTIONS OF A COMPOUND AND A CONDENSATE, OR A COMPONENT THEREOF, AND USES THEREOF” (Dewpoint Therapeutics, Inc., priority 2020, published 2023).

The target in test [1] is T1, FUS-RRM (Homo sapiens, UniProt P35637).
T1 construct: made in house; host or cells: E. coli
T1 sequence (P35637 285-371 limits assumed): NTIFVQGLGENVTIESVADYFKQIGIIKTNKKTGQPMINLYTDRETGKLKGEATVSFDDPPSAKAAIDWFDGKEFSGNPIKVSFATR
The test can be described thus: NMR 1H/15N-HSQC titration of FUS-RRM with Rho800 (chemical shift perturbations). It is filed as binding. The following applies: CSPs by 1H/15N-HSQC 2D-NMR; FIG. 5A, 5B. How it is done:
For binding study, recombinant ^15N-isotope and ^15N/^13C-labeled FUS-RRM proteins were expressed in E. coli and purified using published methods. NMR peak assignments were transferred from publicly available data repositories and confirmed using standard 3D NMR methods. […] protein was titrated with Rho800, ^1H/^15N-HSQC (heteronuclear single quantum coherence) were recorded, and chemical shift perturbations (CSPs) were calculated from the […] Rho800 spectra.

Test [2] has as its target T2, FUS-mEGFP/RNA droplets (Homo sapiens, UniProt P35637).
T2 sequence (P35637 1-526): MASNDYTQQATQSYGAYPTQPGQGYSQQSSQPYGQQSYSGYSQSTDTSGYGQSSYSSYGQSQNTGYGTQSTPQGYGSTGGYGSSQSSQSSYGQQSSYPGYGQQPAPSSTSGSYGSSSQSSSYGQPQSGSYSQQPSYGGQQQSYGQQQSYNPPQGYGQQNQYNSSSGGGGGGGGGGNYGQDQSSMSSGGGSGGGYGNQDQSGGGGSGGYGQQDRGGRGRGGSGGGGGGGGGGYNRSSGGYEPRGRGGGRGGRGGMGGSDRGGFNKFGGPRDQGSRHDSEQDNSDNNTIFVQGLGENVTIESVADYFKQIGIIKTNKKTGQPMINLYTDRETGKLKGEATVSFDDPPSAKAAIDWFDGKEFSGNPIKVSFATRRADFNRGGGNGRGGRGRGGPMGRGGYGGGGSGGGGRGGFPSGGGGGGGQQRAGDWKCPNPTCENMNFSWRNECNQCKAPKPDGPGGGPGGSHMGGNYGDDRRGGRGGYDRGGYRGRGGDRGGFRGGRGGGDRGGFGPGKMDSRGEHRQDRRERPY
The test can be described thus: Rho800 titration in FUS-mEGFP/RNA droplets (confocal imaging of Rho800 and FUS-mEGFP intensity inside droplets). The following applies: increasing Rho800 concentrations, FIG. 4. How it is done:
For partitioning study, droplets were prepared in a low-attachment 384-well plate by mixing recombinant FUS-mEGFP protein with synthetic PrD RNA, in the presence of the indicated concentration of Rho800, at a final concentration of […] FUS-mEGFP and 250 nM PrD RNA, using an automated liquid handler. The droplets were incubated at room temperature, in the dark for 4 hours and imaged using a high content confocal fluorescence microscope. Values indicated on the y-axis of FIG. 4 (n=3) were obtained by quantitative image analysis and represent the mean per well intensity of FUS-mEGFP and Rho800 inside segmented droplets.

Test [3] addresses T3, FUS-EGFP condensate (Homo sapiens, UniProt P35637).
T3 sequence (P35637 1-526): T2 sequence (P35637 1-526)
Description: Modulation of FUS-EGFP partitioning into the condensate by RhoB (confocal microscopy). The format is biochemical. The following applies: 1.5 μM RhoB vs no RhoB; FIG. 3C. How it is done:
EGFP-tagged FUS protein (“FUS-EGFP”) and RhoB were mixed and subjected to phase separation condition. The final concentration of RhoB in the reaction was 1.5 μM. For control experiment, no RhoB was added. Images were acquired with a confocal microscope, and EGFP signal inside (I-in) and outside (I-out) of the FUS-EGFP condensate was measured as described above.

Test [4] has as its target T4, FUS-SNAP condensates (Homo sapiens, UniProt P35637).
T4 sequence (P35637 1-526): T2 sequence (P35637 1-526)
The test can be described thus: Partitioning of RhoB into FUS-SNAP condensates formed in vitro (fluorescence and mass spectrometry). The following applies: RhoB 5 μM and 1.25 μM; fluorescence spectroscopy (RhoB-FL) and mass spectroscopy (RhoB-MS); fraction of RhoB in supernatant; FIG. 3A. How it is done:
SNAP-tagged FUS protein (“FUS-SNAP”) and RhoB were mixed and subjected to a phase separation condition. The final concentration of RhoB in the reaction was 5 μM and 1.25 μM. For control experiment, no RhoB was added. The partition characteristic of RhoB to FUS-SNAP condensate was then measured by both a fluorescence spectroscopy and a mass spectroscopy-based technique described herein.
Images of the condensate droplets were acquired with a confocal microscope for appropriate setting for RhoB. The background signal of FUS-SNAP droplets in the absence of RhoB was also recorded. Fluorescence intensity was measured inside a FUS-SNAP condensate and in a region next to (outside) the FUS-SNAP condensate, and corrected for background signal (no RhoB controls), to calculate the fraction of RhoB in extra-condensate solution (i.e., supernatant).
A mass spectrometry-based method was used to measure the partition characteristics of RhoB and compared to measurements obtained using the fluorescence-based assay above. […] The amount of RhoB in the supernatant and a reference reaction were measured using mass spectrometry. The partition characteristic was then calculated based on the fraction of RhoB in extra-condensate solution (i.e., supernatant).

The target of test [5] is T5, FUS-SNAP protein (Homo sapiens, UniProt P35637).
T5 sequence (P35637 1-526): T2 sequence (P35637 1-526)
Description: Binding affinity of RhoB to FUS-SNAP protein in the light phase (Dianthus MST). The following applies: FIG. 3B. The protocol: The binding affinity (Kd) of RhoB to FUS-SNAP protein in the light phase was measured using Dianthus MST technology.

For the molecule `N#CC1=c2cc3c4c(c2Oc2c1cc1c5c2CCCN5CCC1)CCC[N+]=4CCC3` [Rho800], in test [1], the “binding of Rho800 to FUS-RRM domain” value is “binds directly to the FUS-RRM domain”. In addition, the “partitioning of Rho800 into the condensate droplets” value in test [2] (4 hours at room temperature) is listed as “increased partitioning of the compound into the condensate droplets”. Moreover, the “partitioning of FUS-mEGFP in the condensate droplets in the presence of Rho800” value in test [2] is recorded as “FUS-mEGFP de-partitioning from the condensate droplets”.

Broadly, the Kd is the equilibrium constant for the complex coming apart. Lower therefore signals higher affinity. In the case of `CCN(CC)c1ccc2c(-c3ccccc3C(=O)O)c3ccc(=[N+](CC)CC)cc-3oc2c1` [RhoB, Rhodamine B], the “partitioning of EGFP-labeled FUS into the condensate in the presence of RhoB” value in test [3] is “partitioned less into the condensate”. Also, the “partitioning of RhoB into FUS-SNAP condensates” value in test [4] was “partitions into FUS-SNAP condensates”. For the same molecule, the Kd in test [5] was 17.1 µM.
